Measurements as given in publication PMC9811213, “Glutamine deamidation does not increase the immunogenicity of C-peptide in people with type 1 diabetes” (Journal of Translational Autoimmunity, 2022).

What was measured:
[1] = tested on: Jurkat line (ACD4_38) expressing a C-peptide specific TCR; experiment: IL-2 secretion (ELISA) by TCR-transduced Jurkat line, peptide titration; format: cell-based, human; conditions: clone ACD4_38, two independent experiments
Protocol: (§1) TCR-transduced T cells were cultured, in triplicate, in cRPMI/5% FBS at 2 × 10^4/well with an equal number of EBV-transformed B cells (see Supplementary Table 3) and different peptides (Purar Chemicals). See Supplementary Table 6 for a full list of peptides used in this study. The positive control was PMA (10 ng/mL) and ionomycin (500 ng/mL) in culture media. Negative controls had all cells, but no peptide. After overnight culture supernatant was collected for IL-2 ELISA.
(§2) ELISAs were performed using the ELISA MAX™ Deluxe set Human IL-2 (BioLegend) as per the manufacturer's instructions. Briefly, 96-well ELISA plates (Greiner Bio-One) were coated with 100μL/well of purified anti-human IL-2 antibody diluted 1:200. […] The reaction was stopped by the addition of 2 M H2SO4 solution (BioLegend) and optical density (OD) measured using a FLUOstar Omega microplate reader (BMG LabTech). The amount of IL-2 secreted was determined using a linear regression of all OD values (minus the background) of the standard curve. […]
To determine if C-peptide specific TCRs were more sensitive to Q to E variants of C-peptide we tested graded concentrations of wild type C-peptide and five deamidated variants. […] To compare the relative potency of the Q to E substituted peptides the responses were calculated as fold change relative to full-length, WT C-peptide (Fig. 2D). […]

[2] = tested on: 18 Jurkat T-cell lines expressing C-peptide specific TCRs; experiment: IL-2 secretion (ELISA) by panel of 18 TCR-transduced Jurkat lines, peptide titration; format: cell-based, human; conditions: Mann-Whitney test, Fig. 2H
Protocol: as §1
as §2, with “instructions.” for “instructions. Briefly, 96-well ELISA plates (Greiner Bio-One) were coated with 100μL/well of purified anti-human IL-2 antibody diluted 1:200.”
Fig. 2 C-peptide specific TCR responses to deamidated C-peptide variants (A) Each peptide is referred to by the position, within C-peptide of the glutamine (Q), in bold, to glutamic acid (E), in red text, substitutions. […] (C) The EC50 for each peptide was calculated the and the EC50 from two independent experiments are shown. […] Statistical significance was determined using the Mann-Whitney test (ns, not significant, […], p < 0.05, **p < 0.01, ***p < 0.001). […]

Sequence	Stimulation compared with WT C-peptide and the other single substituted peptides (EC50, IL-2) [1]	Difference in fold change in EC50 (relative to full-length C-peptide) between clones with overlapping and non-overlapping epitopes [2]
EAEDLEVGEVELGGGPGAGSLEPLALEGSLE [QallE, C-peptide with all four glutamines substituted for glutamic acid]	dramatically less stimulatory	
EAEDLQVGEVELGGGPGAGSLQPLALEGSLQ [Q9E, C-peptide variant with glutamine 9 substituted for glutamic acid]	dramatically less stimulatory	
EAEDLQVGQVELGGGPGAGSLQPLALEGSLE [Q31E, C-peptide variant with glutamine 31 substituted for glutamic acid]		no difference
